Source: patent publication EP0355409A2, “Use of prolylendopeptidase inhibitors in the treatment of AIDS” (KABUSHIKI KAISHA YAKULT HONSHA, priority 1988, dated 1990)
Square brackets hold non-standard residues; d marks the D form. Peptide text beside a SMILES is read from it. * marks the point of attachment. Cbz = O=C(OCc1ccccc1)*; Thz = O=C(O)[CH]1CSCN1

What was measured:
[1] = system: LAV-1 infected CEM cells (CEM/LAV-1) and MOLT4 Clone 8; assay: Inhibition of syncytia formation in mixed culture of HIV-infected and non-infected T cells; assay type: cell-based; design: key: -: Absolutely no inhibition of syncytium formation.; ±: Slight inhibition of syncytium formation.; +: Partial inhibition of syncytium formation.; ++: Substantial inhibition of syncytium formation.; +++: Complete inhibition of syncytium formation; details: 1 mM; CEM/LAV-1 + MOLT4 Clone 8, 37°C, 18 hours
Text: When HIV-infected T cells and non-infected T cells are mixed in a test tube, the infected T cells and non-infected T cells undergo fusion and form giant cells. This "syncytium forming phenomenon" has already been known to be observed upon their mixing. This phenomenon is characteristic to intercellular infection from HIV and is regarded as an evidence for HIV infection of T cells.
(§1) LAV-1 infected CEM cells (CEM/LAV-1, 2 x 10⁴) and MOLT4 Clone 8 (1 x 10⁵) were used as HIV-infected cells and non-infected cells, respectively. Those two types of cells were cultured in 200 µl/well of RPMI1640 medium added with 10% FCS in a 96-well microplate. The PEP inhibitors of this invention and comparative product, which are shown in Table 1, were separately added. The cells were cultured at 37°C for 18 hours in a capneic incubator. Formation of syncytia was observed. The PEP inhibitory action was measured according to the following method.

[2] = target: T1, PEP derived from bovine brain (Bos taurus, UniProt Q9XTA2); assay: Measurement of PEP inhibitory action (substrate Z-Gly-Pro-β-naphtyl amide); assay type: biochemical; details: pH 7.0, 37°C, read-out: PEP Inhibition IC50
T1 construct: PEP derived from bovine brain; from tissue; host or cells: bovine brain
T1 sequence (Q9XTA2 1-710): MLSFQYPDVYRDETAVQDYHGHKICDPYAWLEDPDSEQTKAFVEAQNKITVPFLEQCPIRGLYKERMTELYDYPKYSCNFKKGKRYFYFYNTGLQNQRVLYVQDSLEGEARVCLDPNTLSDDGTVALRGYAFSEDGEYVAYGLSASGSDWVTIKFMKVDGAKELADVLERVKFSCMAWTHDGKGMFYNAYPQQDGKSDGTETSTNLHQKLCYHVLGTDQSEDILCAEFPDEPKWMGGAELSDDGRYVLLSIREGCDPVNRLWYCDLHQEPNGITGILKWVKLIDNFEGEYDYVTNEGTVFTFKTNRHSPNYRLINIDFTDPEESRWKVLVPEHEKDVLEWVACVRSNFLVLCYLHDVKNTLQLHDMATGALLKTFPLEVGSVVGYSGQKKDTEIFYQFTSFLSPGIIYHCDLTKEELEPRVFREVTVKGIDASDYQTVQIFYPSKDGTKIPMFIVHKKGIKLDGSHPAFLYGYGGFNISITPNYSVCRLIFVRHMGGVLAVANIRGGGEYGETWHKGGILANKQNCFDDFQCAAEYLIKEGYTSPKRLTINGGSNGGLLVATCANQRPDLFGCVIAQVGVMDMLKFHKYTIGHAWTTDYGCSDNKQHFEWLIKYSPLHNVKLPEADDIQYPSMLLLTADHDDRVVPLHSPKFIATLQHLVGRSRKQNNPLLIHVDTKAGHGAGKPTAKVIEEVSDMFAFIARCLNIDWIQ
Procedure: as §1, with “Those” for “LAV-1 infected CEM cells (CEM/LAV-1, 2 x 10⁴) and MOLT4 Clone 8 (1 x 10⁵) were used as HIV-infected cells and non-infected cells, respectively. Those”
Z-Gly-Pro-β-naphtyl amide was used as a substrate and the inhibitory action against PEP derived from bovine brain was measured.
0.7 ml of 20 mM-tris HCl buffer (pH 7.0) containing 10 mM of EDTA and 10 mM of 2-mercaptoethanol was added with 100 µl of PEP (about 0.14 u/ml) and 100 µl of a test solution which had been prepared to have a predetermined concentration (0, 10⁻⁹ - 10⁻⁴M), and subjected to preincubation at 37°C for 5 minutes. To this was added various concentrations of a substrate which had been dissolved in 100 µl of 40% dioxane followed by incubation at 37°C for 15 minutes to proceed an exzymatic reaction. The reaction was terminated by the use of 25% trichloroacetic acid. The solution was centrifugally separated at 3,000 rpm for 10 minutes to obtain 0.5 ml of a supernatent, to which was added 0.5 ml of 0.1% nitrous acid, and 3 minutes after, 0.05% N-(1-naphtyl)ethylendediaminedihydrochloride ethanol solution. After allowing the mixture to stand at 37°C for 25 minutes, the absorbance at 570 nm was measured. […] Enzyme activity unit (µmol/min/ml) = ΔOD x 0.42 x dilution ratio

Row | SMILES | Inhibition of Syncytia Formation [1] | IC50 [2] [µM]
1 | O=C(C1CCCN1C(=O)OCc1ccccc1)N1CCCCC1 (stereo not drawn) | ± | > 1000
2 | O=C(C1CSCN1C(=O)OCc1ccccc1)N1CCOCC1 (stereo not drawn) |  | 0.54
3 | O=C(C1CSCN1C(=O)OCc1ccccc1)N1CCCC1 (stereo not drawn) |  | 0.16
4 | O=C(C1CCCN1C(=O)OCc1ccccc1)N1CCSC1 (stereo not drawn) | ++ | 0.0046
5 | O=C(C1CSCN1C(=O)OCc1ccccc1)N1CCSC1 (stereo not drawn) | +++ | 0.00014
6 | O=CC1CSCN1C(=O)C1CCCN1C(=O)OCc1ccccc1 (stereo not drawn) (Cbz-Pro-[Thz]-aldehyde; configuration not given here) | ++ | 0.001
7 | O=CC1CSCN1C(=O)C1CSCN1C(=O)OCc1ccccc1 (stereo not drawn) (Cbz-[Thz]-[Thz]-aldehyde; configuration not given here) | +++ | 
8 | O=C(C1CSCN1)N1CCSC1 (stereo not drawn) [comparative product, reference compound] |  | > 1000
